# In patent publication US10918644B2, “Chemotherapeutic drug composition” (YEDITEPE UNIVERSITESI, priority 2017, dated 2021):
# Several values for one entry are separate records, joined by “and”; a condition that tells them apart may be missing. Identical values can stand only once. Entries after “also recorded” stand apart in the source; their conditions may differ.
# Key:
# [1] = system: Everolimus-resistant RenCa (erRenCa) cells; assay: In vivo tumor model with erRenCa cells injected into the dorsal area; design: species or system Balb/c mice; conditions: for animals with tumor formation: 2 mg/kg Everolimus and/or 75 mg/kg ABT-737 intraperitoneally every other day from day 4, 11 injections, eight animals per group
# Experimental: Everolimus stock solution was prepared by dissolving 10 mg lyophilized Everolimus in 1.043 ml DMSO (Dimethyl sulfoxide) (9.6 mg/ml) and ABT-737 stock solution was prepared by dissolving 10 mg ABT-737 in 1.229 ml DMSO (8.14 mg/ml). Stock concentration of both drugs was 10 mM. For in vitro conditions, dilutions were made in cell culture medium at concentrations ranging from 1-5 μM from Everolimus stock concentration. For in vivo conditions, the drug Everolimus that will be injected to animals was prepared by diluting the stock concentration in PBS (Phosphate-buffered saline) to a concentration of 2 mg/kg. For in vitro conditions, dilutions were made in cell culture medium at concentrations ranging from 1-10 μM from ABT-737 stock concentration. For in vivo conditions, the drug ABT-737 that will be injected to animals was prepared by diluting the stock concentration in PBS (Phosphate-buffered saline) to a concentration of 75 mg/kg. Prior to injection, the volume of the injected drug is adjusted to 200 μl by addition of PBS (Phosphate-buffered saline). The drugs were injected into the animals separately one minute apart without being mixed.
# (§1) The process of tumor development was monitored.
# These erRenCa kidney cancer cells were used as a cancer cell line to form a kidney cancer tumor model in animals. For this purpose, cells were subcutaneously injected into the dorsal area of Balb/c mice. […] The experiment was terminated at the end of 11 injections. […] In order to develop resistance to Everolimus, erRenCa cells inactivated their mTOR pathway and began to use the Bcl-2 pathway for their survival. Therefore, cancer cells could only undergo cell death after blocking the anti-apoptotic Bcl-2 survival pathway with the drug ABT-737.
# [2] = mouse, in vivo
# Excerpt: At the end of the experiment, the organs including thymus, heart, stomach, intestine, kidney, spleen, testis, lung, liver, and brain were taken from the animals in each group and were sent for pathological examination. […] At the same time, the metastatic focus in these tissues was also examined.
# [3] = system: HEK293 cells; assay: WST-1 cell viability assay on healthy kidney cells (toxicity); format: cell-based, human
# Experimental: (§2) The WST-1 assay was performed to determine cell viability. The working principle of this assay is based on the conversion of the stable tetrazolium salt WST-1 into soluble formazan by viable cells. During conversion of WST-1 to formazan, a color change that is measurable at 450 and 630 nm wavelengths occurs in the cell medium. In other words, the amount of formazan dye is proportional to the number of metabolically active (viable) cells. The color change was evaluated by measuring the absorbance in the ELISA device and the obtained values were analyzed using the Graph Pad Prism 7 database.
# Human embryonic kidney (HEK293) cells were used as a cell model to test whether Everolimus and ABT-737 had any toxic effects on healthy kidney cells. HEK293 cells were treated with the drug composition (1 μM for Everolimus and 5 μM for ABT-737) for 3 days and the toxicity response was determined by measuring cell viability by WST-1 assay for 3 days.
# [4] = system: Caki-1 cells; assay: WST-1 cell viability assay, Caki-1 cells; format: cell-based
# Experimental: as §2
# (§3) To determine the toxic effect of Everolimus and ABT-737 on cell viability, primary A-498 and metastatic Caki-1 RCC cell lines that are resistant to drug Everolimus were used in this study and the toxic effect was determined by using the WST-1 method.
# (§4) Everolimus and ABT-737 drugs were administered to A-498 and Caki-1 cells, which were seeded in 96-well culture plates, for three days to determine the appropriate dose for the combination. The effect of the drugs prepared at three different concentrations (1, 5, or 10 μM) on cell viability was determined using the WST-1 method. […] The amount of drug composition for Caki-1 (10,000 cells/well) metastatic cells was determined as 1 μM Everolimus and 10 μM ABT-737. […]
# [5] = system: Caki-1 cells; assay: Annexin-V cell death detection assay, Caki-1 cells; format: cell-based; conditions: 1 μM Everolimus and 10 μM ABT-737, or ABT-737 monotherapy; 24, 48 and 72 hours
# [6] = system: RenCa cells; assay: WST-1 cell viability assay, RenCa cells; format: cell-based, murine; conditions: Everolimus 1, 5 and 10 μM, after 48 hours of treatment
# Experimental: as §2, §1
# [7] = system: Everolimus-resistant RenCa (erRenCa) cells; assay: WST-1 cell viability assay, Everolimus-resistant RenCa cells; format: cell-based, murine; conditions: Everolimus 1, 5 and 10 μM, at the end of three days
# Experimental: as §2
# RenCa cells were made resistant to Everolimus for the use in in vivo experiments. In this regard, RenCa cells were seeded in 96-well culture plates. After 24 hours, the cells were treated with 1 μM Everolimus for 72 hours. At the end of 72 hours, the cells were washed with PBS (Phosphate-buffered saline) and treated with 10 μM Everolimus for an additional 72 hours. Cells that developed resistance to Everolimus were transferred to 6-well culture plates and were grown in an Everolimus-free medium. Cells reaching a density of 90% were transferred to T-75 culture plates and were grown for 2 months in a medium containing 1 μM Everolimus.
# as §1
# [8] = system: mTOR pathway in Caki-1 cells; assay: Western Blotting of mTOR pathway proteins, Caki-1 cells; format: cell-based; conditions: 1 μM Everolimus alone or with 10 μM ABT-737, 24 hours
# Experimental: (§5) A-498 and Caki-1 RCC cells were used to investigate the molecular effect of the Everolimus and ABT-737 drug composition on the mTOR pathway. A-498 cells and Caki-1 cells seeded in 6-well plates were treated for 24 hours with 1 μM Everolimus and 5 μM ABT-737 and 1 μM Everolimus and 10 μM ABT-737, respectively. At the end of 24 hours, proteins were isolated from the cells. These proteins were then used to determine the expression of proteins that play a key role in the mTOR pathway by performing the Western Blotting technique.
# [9] = system: A-498 cells; assay: WST-1 cell viability assay, A-498 cells; format: cell-based; conditions: Everolimus monotherapy, 1, 5 or 10 μM, three days
# Experimental: as §2, §3, §4
# [10] = system: mTOR pathway in A-498 cells; assay: Western Blotting of mTOR pathway proteins, A-498 cells; format: cell-based; conditions: 1 μM Everolimus alone or with 5 μM ABT-737, 24 hours
# Experimental: as §5
# [11] = cited from earlier work; for prolonged progression-free survival: treatment of metastatic RCC
# [12] = ABT-737 group, 75 mg/kg intraperitoneally every other day
# [13] = Everolimus group, 2 mg/kg intraperitoneally every other day, 2 mg/kg
smiles,measurement,setting,value
CN(C)CC[C@H](CSc1ccccc1)Nc1ccc(S(=O)(=O)NC(=O)c2ccc(N3CCN(Cc4ccccc4-c4ccc(Cl)cc4)CC3)cc2)cc1[N+](=O)[O-] [ABT-737],animals with tumor formation,[1],three of the eight
same,"Grade (WHO/ISUP, per animal H1-H8)",[1]; [12],4
same,Necrosis (per animal H1-H8),[1]; [12],No
same,"Tumor (pathological examination, per animal H1-H8)","[1]; ABT-737 group, 75 mg/kg intraperitoneally every other day, 75 mg/kg",No tumor; also recorded: Renal cell carcinoma
same,toxic effects on the animals (pathological examination of the tissues),[2],did not show any toxic effects
same,decrease in the cell viability of healthy kidney cells,"[3]; 5 μM ABT-737, third day of the treatment",did not cause any decrease
same,decrease in cell viability,"[4]; ABT-737 monotherapy, after 72 hours",80%
same,apoptosis mediated cell death (Annexin-V),[5],more significant increase in the cell death compared to the combination
CO[C@H]1C[C@@H]2CC[C@@H](C)[C@@](O)(O2)C(=O)C(=O)N2CCCC[C@H]2C(=O)O[C@H]([C@H](C)C[C@@H]2CC[C@@H](OCCO)[C@H](OC)C2)CC(=O)[C@H](C)/C=C(\C)[C@@H](O)[C@@H](OC)C(=O)[C@H](C)C[C@H](C)/C=C/C=C/C=C/1C [Everolimus],effect on cell viability,[6],caused toxic effects
same,change in cell viability,[7],did not cause any change
same,animals with tumor formation,[1],four of the eight
same,"Grade (WHO/ISUP, per animal H1-H8)",[1]; [13],4 (3×) and 2
same,Necrosis (per animal H1-H8),[1]; [13],No (7×) and Yes
same,"Tumor (pathological examination, per animal H1-H8)",[1]; [13],Renal cell carcinoma; also recorded: No tumor
same,toxic effects on the animals (pathological examination of the tissues),[2],did not show any toxic effects
same,cytotoxic effect on healthy kidney cells,"[3]; 1 μM Everolimus, 24 and 48 hours",did not show any cytotoxic effect
same,decrease in the cell viability compared to untreated control cells,"[3]; 1 μM Everolimus, 72 hour-treatment",50%
same,S6 protein phosphorylated at serine 240/244 (S6-S240/244P),[8],decrease
same,basal p70S6K protein expression,[8]; vs control cells,decreased
same,p70S6K protein phosphorylated at threonine 389 (p70S6K-T389P),[8]; vs control cells,decrease
same,autophosphorylation of the mTOR kinase at serine 2448 (mTOR-S2448P),[8]; vs untreated control cells,diminished
same,response of cell viability to Everolimus (toxicology results),[9],resistant
same,response of cell viability to Everolimus (toxicology results),"[4]; Everolimus monotherapy, 1, 5 or 10 μM, three days",resistant
same,S6 protein phosphorylated at serine 240/244 (S6-S240/244P),[10],decrease
same,basal p70S6K protein expression,[10]; vs control cells,decreased
same,p70S6K protein phosphorylated at threonine 389 (p70S6K-T389P),[10]; vs control cells,decrease
same,autophosphorylation of the mTOR kinase at serine 2448 (mTOR-S2448P),[10]; vs untreated control cells,diminished
same,increase of survival,"[11]; advanced stage RCC, Phase III clinical trials, after failure of VEGF therapy",about 4.9 months
same,prolonged progression-free survival,[11],up to 4.9 months
CNC(=O)c1cc(Oc2ccc(NC(=O)Nc3ccc(Cl)c(C(F)(F)F)c3)cc2)ccn1 [Sorafenib],prolonged progression-free survival,[11],up to 5.9 months
CO[C@H]1C[C@@H]2CC[C@@H](C)[C@@](O)(O2)C(=O)C(=O)N2CCCC[C@H]2C(=O)O[C@H]([C@H](C)C[C@@H]2CC[C@@H](OC(=O)C(C)(CO)CO)[C@H](OC)C2)CC(=O)[C@H](C)/C=C(\C)[C@@H](O)[C@@H](OC)C(=O)[C@H](C)C[C@H](C)/C=C/C=C/C=C/1C [Temsirolimus],prolonged progression-free survival,[11],up to 3.8 months
